Source: patent US20160213003A1, “APPLICATION OF POLYOXOMETALATE IN PREPARATION OF DISINFECTANT FOR STERILIZING AND REMOVING FORMALDEHYDE” (NINGBO YUCHEN ENVIROCLEAN TECH CO., LTD., priority 2013, published 2016)

Tested on: Staphylococcus aureus
Experiment: Kirby-Bauer diffusion detection of sterilizing capability (inhibition zone diameter)
Format: cell-based
Conditions: for sterilization effect without oxygen ventilation (diameter, mm): pH 10, no oxygen ventilation
Protocol: In catalyst screening, Staphylococcus aureus was used as the microorganisms, and a trypsin soybean agar was used as a culture medium. The material powder to be screened was prepared into a homogeneous mixture solution by pure water in a 3% weight/volume ratio (i.e., 3 g powder/100 mL water), then immersed with a neutral precise filtration filter paper of 5 mm diameter for about 10 seconds, then placed into a Kirby-Bauer diffusion detection plate. A Kirby-Bauer diffusion detection plate was placed in a sealed glass cover, and the air was provided into the glass cover at a speed of about 10 liters per minute. The sterilizing capability of the catalyst was measured by the diameter of the zone without bacterial growth around the filter paper. A variety of polyoxometalates were respectively prepared into a water solution with a 3% mass concentration, and pH was controlled to 10. The sterilizing capability was also detected by Kirby-Bauer diffusion detection method in which Staphylococcus aureus was used as the microorganisms, respectively including no oxygen ventilation and oxygen ventilation. When oxygen was ventilated, the condition for oxygen ventilation was the same, the temperature was room temperature (25° C.) and 37° C. […] Potassium polytungstate (K3[PW12O40]) was respectively prepared into water solutions with mass concentration of 0.5%, 1.0%, 2.0%, 3%, 5%, 10%, and 15%, and the pH were controlled to 10. The sterilizing capability was also detected by Kirby-Bauer diffusion detection method in which Staphylococcus aureus was used as the microorganisms, the condition for oxygen ventilation was the same, and the temperature was room temperature (25° C.) and 37° C. […] Potassium polytungstate (K3[PW12O40]) was respectively prepared into water solutions with a concentration of 3% and pH of 6, 7, 8, 8.5, 9, 9.5, 10, 10.5, 11, 11.5, 12. The sterilizing capability was also detected by Kirby-Bauer diffusion detection method in which Staphylococcus aureus was used as the microorganisms, the condition for oxygen ventilation was the same, and the temperature was room temperature (25° C.) and 37° C.

[1] = 3% water solution, pH 10, oxygen ventilation, 25° C.
[2] = 3% water solution, pH 10, oxygen ventilation, 37° C.

Na3[PW12O40]
sterilization effect without oxygen ventilation (diameter, mm) (3% water solution): 3 mm
sterilization effect at 25° C. (diameter, mm) [1]: 19 mm
sterilization effect at 37° C. (diameter, mm) [2]: 18 mm

Potassium polytungstate [K3[PW12O40]]
sterilization effect at 25° C. (diameter, mm) (3% water solution, pH 6, oxygen ventilation, 25° C.): 5 mm
sterilization effect at 37° C. (diameter, mm) (3% water solution, pH 6, oxygen ventilation, 37° C.): 6 mm
sterilization effect at 25° C. (diameter, mm) (3% water solution, pH 7, oxygen ventilation, 25° C.): 6 mm
sterilization effect at 37° C. (diameter, mm) (3% water solution, pH 7, oxygen ventilation, 37° C.): 8 mm
sterilization effect at 25° C. (diameter, mm) (3% water solution, pH 8, oxygen ventilation, 25° C.): 8 mm
sterilization effect at 37° C. (diameter, mm) (3% water solution, pH 8, oxygen ventilation, 37° C.): 11 mm
sterilization effect at 25° C. (diameter, mm) (3% water solution, pH 8.5, oxygen ventilation, 25° C.): 14 mm
sterilization effect at 37° C. (diameter, mm) (3% water solution, pH 8.5, oxygen ventilation, 37° C.): 15 mm
sterilization effect at 25° C. (diameter, mm) (3% water solution, pH 9, oxygen ventilation, 25° C.): 17 mm
sterilization effect at 37° C. (diameter, mm) (3% water solution, pH 9, oxygen ventilation, 37° C.): 18 mm
sterilization effect at 25° C. (diameter, mm) (3% water solution, pH 9.5, oxygen ventilation, 25° C.): 20 mm
sterilization effect at 37° C. (diameter, mm) (3% water solution, pH 9.5, oxygen ventilation, 37° C.): 19 mm
sterilization effect without oxygen ventilation (diameter, mm) (3% water solution): 3 mm
sterilization effect at 25° C. (diameter, mm) [1]: 19 mm
sterilization effect at 25° C. (diameter, mm) (3% water solution, pH 10, oxygen ventilation, 25° C. (pH series)): 19 mm
sterilization effect at 37° C. (diameter, mm) [2]: 19 mm
sterilization effect at 37° C. (diameter, mm) (3% water solution, pH 10, oxygen ventilation, 37° C. (pH series)): 19 mm
sterilization effect at 25° C. (diameter, mm) (3% water solution, pH 10.5, oxygen ventilation, 25° C.): 18 mm
sterilization effect at 37° C. (diameter, mm) (3% water solution, pH 10.5, oxygen ventilation, 37° C.): 19 mm
sterilization effect at 25° C. (diameter, mm) (3% water solution, pH 11, oxygen ventilation, 25° C.): 20 mm
sterilization effect at 37° C. (diameter, mm) (3% water solution, pH 11, oxygen ventilation, 37° C.): 20 mm
sterilization effect at 25° C. (diameter, mm) (3% water solution, pH 11.5, oxygen ventilation, 25° C.): 20 mm
sterilization effect at 37° C. (diameter, mm) (3% water solution, pH 11.5, oxygen ventilation, 37° C.): 20 mm
sterilization effect at 25° C. (diameter, mm) (3% water solution, pH 12, oxygen ventilation, 25° C.): 20 mm
sterilization effect at 37° C. (diameter, mm) (3% water solution, pH 12, oxygen ventilation, 37° C.): 20 mm
sterilization effect at 25° C. (diameter, mm) (concentration 0.5%, pH 10, oxygen ventilation, 25° C.): 8 mm
sterilization effect at 37° C. (diameter, mm) (concentration 0.5%, pH 10, oxygen ventilation, 37° C.): 9 mm
sterilization effect at 25° C. (diameter, mm) (concentration 1.0%, pH 10, oxygen ventilation, 25° C.): 11 mm
sterilization effect at 37° C. (diameter, mm) (concentration 1.0%, pH 10, oxygen ventilation, 37° C.): 10 mm
sterilization effect at 25° C. (diameter, mm) (concentration 2.0%, pH 10, oxygen ventilation, 25° C.): 14 mm
sterilization effect at 37° C. (diameter, mm) (concentration 2.0%, pH 10, oxygen ventilation, 37° C.): 16 mm
sterilization effect at 25° C. (diameter, mm) (concentration 3.0%, pH 10, oxygen ventilation, 25° C.): 16 mm
sterilization effect at 37° C. (diameter, mm) (concentration 3.0%, pH 10, oxygen ventilation, 37° C.): 18 mm
sterilization effect at 25° C. (diameter, mm) (concentration 5%, pH 10, oxygen ventilation, 25° C.): 18 mm
sterilization effect at 37° C. (diameter, mm) (concentration 5%, pH 10, oxygen ventilation, 37° C.): 19 mm
sterilization effect at 25° C. (diameter, mm) (concentration 10%, pH 10, oxygen ventilation, 25° C.): 20 mm
sterilization effect at 37° C. (diameter, mm) (concentration 10%, pH 10, oxygen ventilation, 37° C.): 20 mm
sterilization effect at 25° C. (diameter, mm) (concentration 15%, pH 10, oxygen ventilation, 25° C.): 19 mm
sterilization effect at 37° C. (diameter, mm) (concentration 15%, pH 10, oxygen ventilation, 37° C.): 18 mm
